Measured values reported in ChEMBL document CHEMBL1201862, “PubChem BioAssay data set” (2004).
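Grown in 96-well plates, cells were treated for 48 hours with each compound at five concentrations. Insufficient inhibition: endpoint recorded as highest concentration tested. GI50 = concentration required for 50% inhibition of growth.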 Activity calls are given as the source filed them. No stated cut-off is given here; in the data, active = GI50 up to about 1.1 µM and inactive = higher.

Legend:
Test in all cases: NCI anticancer screen, dose series, 48 h
HOP-62 = system: HOP-62
SF-539 = system: SF-539
HCT-116 = system: HCT-116
T47D = system: T47D
MOLT-4 = system: MOLT-4
SF-295 = system: SF-295
MDA-MB-231 = system: MDA-MB-231
COLO 205 = system: COLO 205
IGROV-1 = system: IGROV-1
NCI-H23 = system: NCI-H23
U-251 = system: U-251
NCI-H226 = system: NCI-H226
TK-10 = system: TK-10
ACHN = system: ACHN
OVCAR-4 = system: OVCAR-4
UACC-62 = system: UACC-62
NCI-H522 = system: NCI-H522
OVCAR-3 = system: OVCAR-3
CCRF-CEM = system: CCRF-CEM
SK-MEL-28 = system: SK-MEL-28
SNB-19 = system: SNB-19
SK-MEL-5 = system: SK-MEL-5
SK-MEL-2 = system: SK-MEL-2
SNB-75 = system: SNB-75
HL-60 = system: HL-60
Hs-578T = system: Hs-578T
HT-29 = system: HT-29
OVCAR-8 = system: OVCAR-8
RPMI-8226 = system: RPMI-8226
CAKI-1 = system: CAKI-1
PC-3 = system: PC-3
MDA-MB-435 = system: MDA-MB-435
Malme-3M = system: Malme-3M
HOP-92 = system: HOP-92
UACC-257 = system: UACC-257
HCT-15 = system: HCT-15
M14 = system: M14
MCF7 = system: MCF7
MDA-N = system: MDA-N
EKVX = system: EKVX
A549 = system: A549
KM12 = system: KM12
BT-549 = system: BT-549
SW-620 = system: SW-620
K562 = system: K562
RXF 393 = system: RXF 393
NCI-H460 = system: NCI-H460
HCC 2998 = system: HCC 2998
SK-OV-3 = system: SK-OV-3
UO-31 = system: UO-31
LOX IMVI = system: LOX IMVI
SR = system: SR
786-0 = system: 786-0
OVCAR-5 = system: OVCAR-5
A498 = system: A498
SF-268 = system: SF-268
SN12C = system: SN12C
NCI/ADR-RES = system: NCI/ADR-RES
DU-145 = system: DU-145

Q: With `O=CNc1ccccc1OCCOc1ccccc1NC=O` as the compound, how does the GI50 (HOP-62) read?
A: The GI50 was > 100 µM (inactive).

Q: And the GI50 (SF-539)?
A: The GI50 was > 100 µM (inactive).

Q: And the GI50 (HCT-116)?
A: Its GI50 is > 100 µM (inactive).

Q: And the GI50 (T47D)?
A: Its GI50 is > 100 µM (inactive).

Q: And the GI50 (MOLT-4)?
A: Its GI50 is > 100 µM (inactive).

Q: What about the GI50 (SF-295) of the same compound?
A: The GI50 was > 100 µM (inactive).

Q: And the GI50 (MDA-MB-231)?
A: The GI50 was > 100 µM (inactive).

Q: What about the GI50 (COLO 205) of the same compound?
A: Its GI50 is > 100 µM (inactive).

Q: And the GI50 (IGROV-1)?
A: The GI50 was > 100 µM (inactive).

Q: What about the GI50 (NCI-H23) of the same compound?
A: The GI50 was > 100 µM (inactive).

Q: What about the GI50 (U-251) of the same compound?
A: The GI50 was > 100 µM (inactive).

Q: What about the GI50 (NCI-H226) of the same compound?
A: Its GI50 is > 100 µM (inactive).

Q: And the GI50 (TK-10)?
A: Its GI50 is > 100 µM (inactive).

Q: And the GI50 (ACHN)?
A: The GI50 was > 100 µM (inactive).

Q: And the GI50 (OVCAR-4)?
A: Its GI50 is > 100 µM (inactive).

Q: And the GI50 (UACC-62)?
A: Its GI50 is > 100 µM (inactive).

Q: And the GI50 (NCI-H522)?
A: The GI50 was > 100 µM (inactive).

Q: And the GI50 (OVCAR-3)?
A: Its GI50 is > 100 µM (inactive).

Q: And the GI50 (CCRF-CEM)?
A: Its GI50 is > 100 µM (inactive).

Q: And the GI50 (SK-MEL-28)?
A: Its GI50 is > 100 µM (inactive).

Q: What about the GI50 (SNB-19) of the same compound?
A: Its GI50 is > 100 µM (inactive).

Q: And the GI50 (SK-MEL-5)?
A: Its GI50 is > 100 µM (inactive).

Q: What about the GI50 (SK-MEL-2) of the same compound?
A: Its GI50 is > 100 µM (inactive).

Q: What about the GI50 (SNB-75) of the same compound?
A: The GI50 was > 100 µM (inactive).

Q: And the GI50 (HL-60)?
A: The GI50 was > 100 µM (inactive).

Q: And the GI50 (Hs-578T)?
A: Its GI50 is > 100 µM (inactive).

Q: What about the GI50 (HT-29) of the same compound?
A: The GI50 was > 100 µM (inactive).

Q: And the GI50 (OVCAR-8)?
A: The GI50 was > 100 µM (inactive).

Q: And the GI50 (RPMI-8226)?
A: Its GI50 is > 100 µM (inactive).

Q: And the GI50 (CAKI-1)?
A: Its GI50 is > 100 µM (inactive).

Q: And the GI50 (PC-3)?
A: Its GI50 is > 100 µM (inactive).

Q: What about the GI50 (MDA-MB-435) of the same compound?
A: Its GI50 is > 100 µM (inactive).

Q: What about the GI50 (Malme-3M) of the same compound?
A: The GI50 was > 100 µM (inactive).

Q: What about the GI50 (HOP-92) of the same compound?
A: The GI50 was > 100 µM (inactive).

Q: What about the GI50 (UACC-257) of the same compound?
A: Its GI50 is > 100 µM (inactive).

Q: And the GI50 (HCT-15)?
A: Its GI50 is greater than 100 µM.

Q: What about the GI50 (M14) of the same compound?
A: The GI50 was > 100 µM (inactive).

Q: And the GI50 (MCF7)?
A: The GI50 was > 100 µM (inactive).

Q: And the GI50 (MDA-N)?
A: Its GI50 is > 100 µM (inactive).

Q: And the GI50 (EKVX)?
A: The GI50 was > 100 µM (inactive).

Q: What about the GI50 (A549) of the same compound?
A: Its GI50 is > 100 µM (inactive).

Q: What about the GI50 (KM12) of the same compound?
A: The GI50 was > 100 µM (inactive).

Q: And the GI50 (BT-549)?
A: Its GI50 is > 100 µM (inactive).

Q: What about the GI50 (SW-620) of the same compound?
A: Its GI50 is > 100 µM (inactive).

Q: And the GI50 (K562)?
A: Its GI50 is > 100 µM (inactive).

Q: And the GI50 (RXF 393)?
A: The GI50 was > 100 µM (inactive).

Q: What about the GI50 (NCI-H460) of the same compound?
A: Its GI50 is > 100 µM (inactive).

Q: And the GI50 (HCC 2998)?
A: Its GI50 is > 100 µM (inactive).

Q: And the GI50 (SK-OV-3)?
A: The GI50 was > 100 µM (inactive).

Q: And the GI50 (UO-31)?
A: The GI50 was > 100 µM (inactive).

Q: And the GI50 (LOX IMVI)?
A: The GI50 was > 100 µM (inactive).

Q: What about the GI50 (SR) of the same compound?
A: Its GI50 is > 100 µM (inactive).

Q: And the GI50 (786-0)?
A: The GI50 was > 100 µM (inactive).

Q: And the GI50 (OVCAR-5)?
A: The GI50 was > 100 µM (inactive).

Q: And the GI50 (A498)?
A: Its GI50 is > 100 µM (inactive).

Q: And the GI50 (SF-268)?
A: Its GI50 is > 100 µM (inactive).

Q: And the GI50 (SN12C)?
A: The GI50 was > 100 µM (inactive).

Q: What about the GI50 (NCI/ADR-RES) of the same compound?
A: Its GI50 is > 100 µM (inactive).

Q: What about the GI50 (DU-145) of the same compound?
A: The GI50 was > 100 µM (inactive).
